Test results as given in patent US11026910B2, “α- and γ-truxillic acid derivatives and pharmaceutical compositions thereof” (The Research Foundation for The State University of New York, priority 2012, dated 2021).
“Also recorded” adds a separate entry of the source.

Legend:
male C57Bl6 mice [1] = assay: Formalin test; assay type: in vivo
Experimental: (§1) We used male C57Bl6 mice (22-30 g, Taconic Farms) for all experiments. The animals were group housed at room temperature and kept on a 12:12 hour light:dark cycle with ad libitum access to water and food. The animals were habituated to the experimental room for one week before testing. All experiments were approved by the Stony Brook University Institutional Animal Care and Use Committee. The experimenter was blinded to the treatment conditions of each animal.
Mice were habituated to the observation chamber (Plexiglas box, 25 cm×25 cm×25 cm) for 30 min prior to formalin injection. The mice subsequently received an injection of formalin (2.5% in saline, 20 μl) into the plantar surface of the right hind paw using a 27 gauge needle. The animals were immediately placed back into the observation, chamber and nocifensive behavior (time spent licking or biting the paw) was recorded for 60 min. The formalin test consists of two phases with the first phase (0-5 min) reflecting nociceptor activation and the second phase (15-45 min) reflecting an inflammatory pain response.
(§2) Behavioral data are presented as means±S.E.M. for the vehicle and inhibitor-treated groups, each consisting of at least 6 animals. Statistical significance between vehicle and inhibitor groups was determined using unpaired t-tests or one-way ANOVA followed by Dunnett's post hoc analysis. In all cases, differences of p<0.05 were considered significant.

male C57Bl6 mice [2] = assay: Carrageenan-induced paw edema and thermal hyperalgesia; assay type: in vivo
Experimental: as §1
Paw edema was induced by injecting 1% λ-carrageenan (20 μl, in sterile saline) into the plantar surface of the left hind paw and a control solution of saline into the right hind paw using a 27 gauge needle. Paw diameters were measured before carrageenan injection and 4 hours after injection using digital electronic calipers (Fisher) and expressed to the nearest ±0.01 mm. […] The cannabinoid receptor antagonists, rimonabant and SR144528 (3 mg/kg, i.p.), in ethanol:emulphor:saline (1:1:18), were injected 15 min before the FABP inhibitor. Edema is reported as the change in paw diameter at 4 hr over the baseline. Changes in paw diameter of saline-injected contralateral paws were negligible. Thermal hyperalgesia measured the latency to withdraw the paw from a focused beam of radiant heat applied to the plantar surface of the hind paw using a Hargreaves plantar apparatus (Ugo Basile) set at an intensity of 3.0. For each mouse, the average latencies consisted of three trials spaced at least 5 minutes apart. The mice were habituated to the test chamber for 30 min. The cutoff time was set at 30 sec.
as §2

PPARα = target: T1, PPARα (Homo sapiens, UniProt Q07869); assay: PPARα transactivation in HeLa cells; assay type: cell-based
T1 construct: expressed in transfected cells; host or cells: HeLa
T1 sequence (Q07869 1-468): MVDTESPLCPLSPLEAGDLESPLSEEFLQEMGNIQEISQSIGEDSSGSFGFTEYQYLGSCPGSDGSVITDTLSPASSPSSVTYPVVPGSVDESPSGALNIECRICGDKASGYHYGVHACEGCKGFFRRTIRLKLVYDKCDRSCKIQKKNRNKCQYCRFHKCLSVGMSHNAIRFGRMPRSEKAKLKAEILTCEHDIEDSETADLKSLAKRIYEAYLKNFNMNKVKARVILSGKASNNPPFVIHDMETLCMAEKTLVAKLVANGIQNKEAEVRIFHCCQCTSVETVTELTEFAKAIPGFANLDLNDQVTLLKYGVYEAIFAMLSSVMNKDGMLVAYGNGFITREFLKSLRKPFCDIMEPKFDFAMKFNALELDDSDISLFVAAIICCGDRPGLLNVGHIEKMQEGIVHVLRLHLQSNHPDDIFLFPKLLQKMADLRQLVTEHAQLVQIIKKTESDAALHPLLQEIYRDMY
Experimental: (§3) PPARα and PPARγ transactivation assays were performed in HeLa cells exactly as described (Kaczocha, M. et al. 2012).

PPARγ = target: T2, PPARγ (Homo sapiens, UniProt P37231); assay: PPARγ transactivation in HeLa cells; assay type: cell-based
T2 construct: expressed in transfected cells; host or cells: HeLa
T2 sequence (P37231 1-505): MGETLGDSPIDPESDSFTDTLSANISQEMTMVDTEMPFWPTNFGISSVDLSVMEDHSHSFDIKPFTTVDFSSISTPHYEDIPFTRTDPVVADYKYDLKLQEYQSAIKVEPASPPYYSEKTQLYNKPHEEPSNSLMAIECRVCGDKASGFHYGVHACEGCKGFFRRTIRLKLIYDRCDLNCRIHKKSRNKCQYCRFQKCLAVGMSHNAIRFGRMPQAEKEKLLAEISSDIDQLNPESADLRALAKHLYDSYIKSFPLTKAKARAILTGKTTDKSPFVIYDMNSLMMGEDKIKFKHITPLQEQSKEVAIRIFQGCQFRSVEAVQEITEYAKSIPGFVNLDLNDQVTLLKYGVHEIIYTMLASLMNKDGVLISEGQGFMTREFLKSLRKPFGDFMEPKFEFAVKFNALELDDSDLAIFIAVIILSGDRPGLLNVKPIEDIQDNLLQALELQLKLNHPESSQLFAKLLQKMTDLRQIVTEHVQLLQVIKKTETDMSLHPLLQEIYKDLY
Experimental: as §3

mice = assay: Acetic acid-induced writhing; assay type: in vivo
Experimental: as §1

wild-type HeLa cells = assay: AEA uptake in wild-type HeLa cells; assay type: cell-based
Experimental: AEA uptake assays in wild-type and FABP5 knockdown HeLa cells were performed exactly as described (Kaczocha, M. et al. 2012).

[3] = 6 hrs incubation, luciferase reporter

SMILES: O=C(O)[C@H]1[C@@H](c2ccccc2)[C@@H](C(=O)Oc2cccc3ccccc23)[C@@H]1c1ccccc1 (single isomer, unassigned) [Compound 26, α-2,4-diphenyl-cyclobutane-1,3-dicarboxylic Acid mono-(1-naphthol) Ester]
- formalin test first phase (0-5 min) nocifensive behavior (male C57Bl6 mice [1]; 20 mg/kg, i.p. (FIG. 10A)): significantly reduced; also recorded: reduces
- formalin test second phase (15-45 min) nocifensive behavior (male C57Bl6 mice [1]; 20 mg/kg, i.p. (FIG. 10A)): only during the first phase
- first phase of formalin-induced nociception (male C57Bl6 mice [1]; FIG. 16B): reduce
- second phase of formalin-induced nociception (male C57Bl6 mice [1]; FIG. 16B): reduce
- antinociceptive and anti-edematous effects after rimonabant and SR144528 pretreatment (male C57Bl6 mice [2]; 20 mg/kg i.p., antagonists 3 mg/kg i.p. 15 min before): completely reversed; also recorded: blocked
- carrageenan-induced paw edema, 24 hrs after inhibitor administration (male C57Bl6 mice [2]; 20 mg/kg, i.p. (FIG. 16A)): reduced
- carrageenan-induced thermal hyperalgesia, 24 hrs after inhibitor administration (male C57Bl6 mice [2]; 20 mg/kg, i.p. (FIG. 16A)): reduced
- carrageenan-induced thermal hyperalgesia (male C57Bl6 mice [2]; 20 mg/kg, i.p., 45 min prior to carrageenan (FIG. 10B)): significantly reduced; also recorded: alleviates
- carrageenan-induced paw edema (male C57Bl6 mice [2]; 20 mg/kg, i.p., paw diameter at 4 hr (FIG. 10C)): significantly reduced; also recorded: reduces
- activation of PPARα (PPARα; [3]): ~2 fold
- agonism at PPARα (PPARα; compared with GW7647): weak agonist
- activation of PPARγ (PPARγ; [3]): ~3 fold
- agonism at PPARγ (PPARγ; compared with rosiglitazone): weak agonist
- antinociceptive effects with SR141716 (3 mg/kg) and GW6471 (4 mg/kg) (mice; FIG. 16E): reversed
- acetic acid-induced writhing (mice; FIGS. 16C-D): reduces
- cellular AEA uptake / accumulation (wild-type HeLa cells): significantly inhibited; also recorded: inhibits
